Experimental findings from BindingDB's records for doi:10.1111/j.1747-0285.2009.00909.x (Queen's University, 2010) are described below.

In experiment [1] the target is T1, Heme oxygenase 1 (Rattus norvegicus, UniProt P06762).
T1 sequence (P06762 whole entry): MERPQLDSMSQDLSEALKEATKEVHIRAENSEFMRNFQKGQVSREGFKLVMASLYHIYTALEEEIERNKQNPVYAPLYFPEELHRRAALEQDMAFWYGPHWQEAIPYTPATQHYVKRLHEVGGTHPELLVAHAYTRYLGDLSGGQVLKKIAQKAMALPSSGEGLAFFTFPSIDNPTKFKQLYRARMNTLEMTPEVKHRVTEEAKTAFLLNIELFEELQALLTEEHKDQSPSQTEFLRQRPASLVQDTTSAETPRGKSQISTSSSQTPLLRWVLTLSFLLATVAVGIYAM
The experiment can be described thus: Heme Oxygenase. Conditions: pH 7.4; 25 °C. The method, then:
(§1) Heme oxygenase activity in rat spleen and brain microsomal fractions was determined by the quantitation of CO formed from the degradation of methemalbumin (heme complexed with albumin). Spleen and brain (SpragueâDawley rats) microsomal fractions were prepared according to the procedure outlined by Appletonet al. Protein concentration of microsomal fractions was determined by a modification of the Biuret method. Incubations for HO activity analysis were performed under conditions for which the rate of CO formation [pmol CO â (min mg protein)] was linear with respect to time and microsomal protein concentration. […] […]

For experiment [2], the target named is T2, Heme oxygenase 2 (Rattus norvegicus, UniProt P23711).
T2 sequence (P23711 whole entry): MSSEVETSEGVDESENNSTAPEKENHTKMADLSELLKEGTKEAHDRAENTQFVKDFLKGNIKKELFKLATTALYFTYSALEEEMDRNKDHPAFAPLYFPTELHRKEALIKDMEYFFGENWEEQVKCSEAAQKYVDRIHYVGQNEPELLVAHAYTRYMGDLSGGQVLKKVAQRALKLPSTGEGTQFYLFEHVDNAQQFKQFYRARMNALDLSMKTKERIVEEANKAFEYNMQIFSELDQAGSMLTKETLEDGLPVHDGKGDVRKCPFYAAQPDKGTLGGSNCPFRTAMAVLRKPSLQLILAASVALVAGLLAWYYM
Put plainly: Heme Oxygenase. Conditions: pH 7.4; 25 °C. On the procedure: as §1

pIC50: −log10 of the molar value. Values joined by “and” are separate entries in the source; they are usually repeats but may differ in a detail not shown here. Equal values may be shown once.

Usually pIC50 stands for the IC50 on a negative log10 scale, so that one unit is a factor of ten. A low value points to a high IC50. For `O=C(CCc1ccccc1)Cn1nnnc1-c1ccccc1` [1-azolyl-4-phenyl-2-butanone, 40], the pIC50 in experiment [1] and in experiment [2] was below 4.00 each time. Consider `CSc1nnn(CC(=O)CCc2ccccc2)n1` [1-azolyl-4-phenyl-2-butanone, 41], for which the pIC50 in experiment [1] and in experiment [2] was below 4.00 throughout. In experiment [2], `O=C(CCc1ccccc1)Cn1cnc(-c2ccccc2)c1-c1ccccc1` [1-azolyl-4-phenyl-2-butanone, 21] showed a pIC50 below 4.00.

As to `CSc1ncnn1CC(=O)CCc1ccccc1` [1-azolyl-4-phenyl-2-butanone, 35], the pIC50 in experiment [1] and in experiment [2] was below 4.00 throughout.

For the compound `O=C(CCc1ccccc1)Cn1ccnc1-c1ccccc1` [1-azolyl-4-phenyl-2-butanone, 16], the pIC50 in experiment [1] and in experiment [2] was below 4.00 throughout. As to `CSc1nnnn1CC(=O)CCc1ccccc1` [1-azolyl-4-phenyl-2-butanone, 38], the negative-log IC50 (pIC50) in experiment [1] and in experiment [2] was below 4.00 each time.

As to `O=C(CCc1ccccc1)Cn1nccn1` [1-azolyl-4-phenyl-2-butanone, 9], the negative logarithm of the IC50 (pIC50) in experiment [1] and in experiment [2] was below 4.00 each time.

Take `O=C(CCc1ccccc1)Cn1cccn1` [1-azolyl-4-phenyl-2-butanone, 5]: the pIC50 in experiment [1] and in experiment [2] was below 4.00 each time. As for `O=C(CCc1ccccc1)Cn1cnc(N(O)O)n1` [1-azolyl-4-phenyl-2-butanone, 32], the pIC50 in experiment [1] and in experiment [2] was below 4.00 each time. On to `O=C(CCc1ccccc1)Cn1cnc(Cl)c1Cl` [1-azolyl-4-phenyl-2-butanone, 20], for which the pIC50 in experiment [1] and in experiment [2] was below 4.00 each time.

In the case of `O=C(CCc1ccccc1)Cn1cnc(Br)c1` [1-azolyl-4-phenyl-2-butanone, 25], the pIC50 in experiment [1] and in experiment [2] was below 4.00 each time.

In the case of `O=C(CCc1ccccc1)Cn1cnc(-c2ccccc2)c1` [1-azolyl-4-phenyl-2-butanone, 24], the pIC50 in experiment [2] was below 4.00. As to `COOSc1ncnn1CC(=O)CCc1ccccc1` [1-azolyl-4-phenyl-2-butanone, 46], the pIC50 in experiment [1] and in experiment [2] was below 4.00 in each case. For the compound `O=C(CCc1ccccc1)Cn1cnc(N(O)O)c1` [1-azolyl-4-phenyl-2-butanone, 26], the pIC50 in experiment [1] and in experiment [2] was below 4.00 each time.

In turn, `OC(CCc1ccccc1)Cn1ccnc1` (stereo not drawn) had a pIC50 in experiment [1] of 5.22. `Cc1nccn1CC(=O)CCc1ccccc1` [1-azolyl-4-phenyl-2-butanone, 15]: the pIC50 in experiment [1] and in experiment [2] was below 4.00 each time. On to `CSc1ncn(CC(=O)CCc2ccccc2)n1` [1-azolyl-4-phenyl-2-butanone, 31], for which the pIC50 in experiment [1] and in experiment [2] was below 4.00 each time. Regarding `O=C(CCc1ccccc1)Cn1ncnn1` [1-azolyl-4-phenyl-2-butanone, 11], in experiment [2], the pIC50 was 4.52 and < 4.00. Turning to `O=C(CCc1ccccc1)Cn1nc2ccccc2n1` [1-azolyl-4-phenyl-2-butanone, 14], the negative-log IC50 (pIC50) in experiment [1] and in experiment [2] was below 4.00 each time. On to `O=C(CCc1ccccc1)Cn1nc(Br)nc1Br` [1-azolyl-4-phenyl-2-butanone, 36], for which the pIC50 in experiment [1] and in experiment [2] was below 4.00 in each case.

On to `O=C(CCc1ccccc1)Cn1ccnn1` [1-azolyl-4-phenyl-2-butanone, 8], for which the figures for the pIC50 in experiment [1] and in experiment [2] were 4.05 and below 4.00, respectively.
